Laboratory results as given in US20230414701A1, “COMPOSITION FOR PREVENTING, AMELIORATING, OR TREATING COGNITIVE DYSFUNCTION DISEASE, COMPRISING PEPTIDE HAVING SYNAPTIC PLASTICITY CONTROL FUNCTION” (UIF (University Industry Foundation), Yonsei University, priority 2020, published 2023).

Legend:
CCNY protein = CCNY protein (Homo sapiens, UniProt Q8ND76); experiment: ELISA of binding capacity of peptides to CCNY; conditions: treated at 10, 100 or 1000 μg/mL; CCNY immobilized on plate; FIG. 5
Method: To examine which of MIC-1 and cyclo MIC-1 according to the present invention easily binds to CCNY, the present inventors conducted an experiment using ELISA. To this end, CCNY was immobilized on a plate, MIC-1 and cyclo MIC-1 were treated at 10, 100 or 1000μg/mL, biotin was bound to the MIC-1 and cyclo MIC-1, and then the optical density of HRP was measured after treating streptavidin-HRP.

[1] = system: hippocampal tissue section from APP/PS1 Alzheimer's disease animal model; experiment: fEPSP amplitude (long-term potentiation) in hippocampal tissue sections; parameters: species or system mouse; conditions: 1 μM, 1 hour and 40 minutes, compared to control peptide material; FIG. 6
Method: Specifically, the brain was extracted from an APP/PS1 Alzheimer's disease animal model, and then transferred to a 4° C. sucrose-artificial cerebrospinal fluid solution (195.5 sucrose, 2.5 KC1, 1 NaH2PO4, 32.5 NaHCO3, 11 glucose, 2 NaPyruvate, 1 NaL-ascorbate, 5 MgSO4, 0.5 CaCl2 (95% O2/5% CO2). Subsequently, brain tissue was cut into coronal sections (400 μm) using a microtome, a hippocampal tissue section was transferred to a 35° C. artificial cerebrospinal fluid solution (128.5 NaCl2, 2.5 KCl, 1 NaH2PO4, 21.7 NaHCO3, 11 glucose, 2 NaPyruvate, 1 NaL-ascorbate, 5 MgSO4, 1 CaCl2 (95% O2/5% CO2)) and incubated for 30 minutes to restore the function of the tissue. Subsequently, an experiment was performed for 1 hour and 40 minutes while flowing MIC-1 according to the present invention at a concentration of 1 μM from the beginning until the end of the experiment using gravity, and then the amplitude of field excitatory postsynaptic potential (fEPSP) was measured.

PSD-95 protein = experiment: Western blotting of PSD-95 protein expression in Aβ42-treated cells; format: cell-based; conditions: FIG. 7
Method: To identify what role MIC-1 plays in improving the cognitive function of MIC-1 according to the present invention, the present inventors, as shown in Example 5, an experiment was performed as follows. Specifically, the change in expression level of the PSD-95 protein known to play an important role in cognitive function was analyzed through Western blotting using a 12% acrylamide gel. For example, it is known that, when cells are treated with Aβ42, compared to normal cells, the amount of PSD-95 protein decreases and cognitive function decreases, resulting in deterioration of memory.

ICR mouse models = experiment: Y-maze behavioral experiment, scopolamine-induced memory loss; format: in vivo; conditions: 20 mpK intravenous twice for one week, then scopolamine 1 mpK i.p. 30 minutes before test; 7-week-old male ICR mice; FIG. 8
Method: In Example 6-1, it was confirmed that MIC-1 can enhance the expression level of the PSD-95 protein known to be associated with cognitive function, and based on this, a behavioral experiment for mouse models was designed. Specifically, among ICR mouse models, 7-week-old male mouse models were used and divided into a control and two experimental groups (scopolamine-treated group and group administered MIC-1 and then treated with scopolamine) to perform the experiment.
MIC-1 was administered into a mouse twice via intravenous administration at 20 mpK for one week. […] Therefore, to induce such memory loss, 30 minutes before the Y-maze behavioral experiment, scopolamine was intraperitoneally administered at 1 mpK to the experimental groups, resulting in memory deterioration.

Chain of CCNY protein (Q8ND76 whole entry, species assumed): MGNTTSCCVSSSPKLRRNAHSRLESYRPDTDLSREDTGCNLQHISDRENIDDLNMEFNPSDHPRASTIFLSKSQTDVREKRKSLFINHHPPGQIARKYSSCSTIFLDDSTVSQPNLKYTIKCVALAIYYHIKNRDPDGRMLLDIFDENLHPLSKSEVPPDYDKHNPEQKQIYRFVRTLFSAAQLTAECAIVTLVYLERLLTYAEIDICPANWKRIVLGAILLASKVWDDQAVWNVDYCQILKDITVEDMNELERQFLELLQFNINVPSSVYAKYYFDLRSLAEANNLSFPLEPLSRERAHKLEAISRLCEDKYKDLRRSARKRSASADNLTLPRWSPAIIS

## MIC-1: Peptide of SEQ ID NO: 1 (PFTAIRE sequence of Cdk14) in which both termini are modified (Ac-PFTAIRE-NH2)
CCNY protein
  binding to the CCNY protein (ELISA, optical density of HRP): can remarkably bind to the CCNY protein
[1]
  fEPSP amplitude: the fEPSP amplitude increases
PSD-95 protein
  level of the PSD-95 protein: the level of the PSD-95 protein is increased
ICR mouse models
  alternation (memory) in Y-maze: the memory is improved up to the control level
